Measured values taken from the Kinase Knowledgebase extract (Sharma et al. 2016).

Target: MAPK14 (UniProt Q16539)
Assay: p38 Kinase Inhibition Assay

Chain of MAPK14 (Q16539 whole entry, looked up): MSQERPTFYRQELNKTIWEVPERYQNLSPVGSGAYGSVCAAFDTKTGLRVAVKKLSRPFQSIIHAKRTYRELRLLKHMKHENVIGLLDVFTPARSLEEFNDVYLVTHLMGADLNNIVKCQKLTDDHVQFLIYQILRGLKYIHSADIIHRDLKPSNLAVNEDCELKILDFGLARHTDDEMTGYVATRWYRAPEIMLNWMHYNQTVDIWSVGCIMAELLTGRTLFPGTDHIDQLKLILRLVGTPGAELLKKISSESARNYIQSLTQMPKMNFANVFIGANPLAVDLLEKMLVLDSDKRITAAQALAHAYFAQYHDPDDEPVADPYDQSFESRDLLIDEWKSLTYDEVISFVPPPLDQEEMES

IC50, 200 to 1500 nM:
Nc1ccc(C(=O)N2CCC(Cc3ccccc3)CC2)cc1
CC(=O)Nc1ccc(C(=O)N2CCC(Cc3ccccc3)CC2)cc1
CNc1ccc(C(=O)N2CCC(Cc3ccccc3)CC2)c(Cl)c1
COc1cccc(OC)c1C(=O)N1CCC(Cc2ccccc2)CC1
O=C(c1ccccc1)N1CCC(Cc2ccccc2)CC1
Cc1ccccc1C(=O)N1CCC(Cc2ccccc2)CC1
O=C(c1ccccc1I)N1CCC(Cc2ccccc2)CC1
COc1ccc(C(=O)N2CCC(Cc3ccccc3)CC2)c(OC)c1
CC1(Cc2ccccc2)CCN(C(=O)c2ccccc2Br)CC1
CN(C)c1ccc(C(=O)N2CCC(Cc3ccccc3)CC2)cc1
CN(C)c1ccc(C(=O)N2CCC(Cc3ccccc3)CC2)c(Cl)c1
S=C(c1ccccc1)N1CCC(Cc2ccccc2)CC1
O=CNc1ccc(C(=O)N2CCC(Cc3ccccc3)CC2)cc1
CNc1ccccc1C(=O)N1CCC(Cc2ccccc2)CC1
O=C(c1ccccc1O)N1CCC(Cc2ccccc2)CC1
O=C(c1ccccc1Cl)N1CCC(Cc2ccccc2)CC1
O=C(c1ccccc1Br)N1CCC(Cc2ccccc2)CC1
Nc1ccc(C(=O)N2CCC(Cc3ccccc3)CC2)c(Cl)c1
CN(C)c1cccc(C(=O)N2CCC(Cc3ccccc3)CC2)c1
CN(C)c1ccccc1C(=O)N1CCC(Cc2ccccc2)CC1
